Results from patent US20140005163A1 (NOVARTIS AG, priority 2010, published 2014).
Converted amounts (≈) assume the structure as drawn.

Columns and labels:
[1] = system: S6 Ribosomal Protein phosphorylation Ser235/236 in TSC1 null mouse embryo fibroblast (MEF) cells; test: Reverse protein array assay, S6 Ribosomal Protein phosphorylation Ser235/236 in TSC1 null MEF cells; assay type: cell-based; details: 1 h, pS6 ribosomal protein Ser235/236, 60 minutes incubation, read-out: p-S6 IC50
Outline: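 TSC1−/− MEFs, seeded and held ≥20 h at 37 °C/5% CO2, were exposed to 8-step serial compound dilutions (0.02% DMSO final; DMSO vehicle control) for 60 min at 37 °C. Cells were then lysed on ice for 10 min and lysates spotted onto reverse protein array chips.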

[2] = system: PKB Ser473 phosphorylation in Rat1-myr-HA-p110 delta cells; test: Reverse protein array assay, PKB Ser473 phosphorylation in Rat1-myr-p110 delta cells; assay type: cell-based; details: read-out: p-PKB IC50
Outline: (§1)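 Lysates were arrayed at four dilutions, and phospho-PKB Ser473 was quantified by relative fluorescence signal. They came from Rat1-myr-HA-p110 alpha, beta or delta cells exposed for 30 min at 37 °C to an 8-point compound series with 0.2% DMSO constant.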

[3] = system: PKB Ser473 phosphorylation in Rat1-myr-HA-p110 beta cells; test: Reverse protein array assay, PKB Ser473 phosphorylation in Rat1-myr-p110 beta cells; assay type: cell-based; details: 0.5 h, pAkt Ser473, 30 minutes incubation, read-out: p-PKB IC50
Outline: as §1

[4] = system: PKB Ser473 phosphorylation in Rat1-myr-HA-p110 alpha cells; test: Reverse protein array assay, PKB Ser473 phosphorylation in Rat1-myr-p110 alpha cells; assay type: cell-based; details: 0.5 h, pAkt Ser473, 30 minutes compound incubation, read-out: p-PKB IC50
Outline: as §1

Solubility at pH 6.8 = assay type: physicochemical; details: pH 6.8, aqueous buffer, thermodynamic from solid; read-out: solubility
Outline: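 Solubility was measured at pH 6.8 following the cited Zhou et al. (2007) procedure.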

mTOR = target: T1, mTOR (Homo sapiens, UniProt P42345); test: Biochemical assay for m-TOR by TR-FRET; details: 8 μM ATP, 400 nM GFP-4EBP1, 0.5 nM mTOR
T1 construct: purchased Invitrogen Corporation (Carlsbad/CA, USA) PV4753
T1 sequence (P42345 1360-2549 limits assumed): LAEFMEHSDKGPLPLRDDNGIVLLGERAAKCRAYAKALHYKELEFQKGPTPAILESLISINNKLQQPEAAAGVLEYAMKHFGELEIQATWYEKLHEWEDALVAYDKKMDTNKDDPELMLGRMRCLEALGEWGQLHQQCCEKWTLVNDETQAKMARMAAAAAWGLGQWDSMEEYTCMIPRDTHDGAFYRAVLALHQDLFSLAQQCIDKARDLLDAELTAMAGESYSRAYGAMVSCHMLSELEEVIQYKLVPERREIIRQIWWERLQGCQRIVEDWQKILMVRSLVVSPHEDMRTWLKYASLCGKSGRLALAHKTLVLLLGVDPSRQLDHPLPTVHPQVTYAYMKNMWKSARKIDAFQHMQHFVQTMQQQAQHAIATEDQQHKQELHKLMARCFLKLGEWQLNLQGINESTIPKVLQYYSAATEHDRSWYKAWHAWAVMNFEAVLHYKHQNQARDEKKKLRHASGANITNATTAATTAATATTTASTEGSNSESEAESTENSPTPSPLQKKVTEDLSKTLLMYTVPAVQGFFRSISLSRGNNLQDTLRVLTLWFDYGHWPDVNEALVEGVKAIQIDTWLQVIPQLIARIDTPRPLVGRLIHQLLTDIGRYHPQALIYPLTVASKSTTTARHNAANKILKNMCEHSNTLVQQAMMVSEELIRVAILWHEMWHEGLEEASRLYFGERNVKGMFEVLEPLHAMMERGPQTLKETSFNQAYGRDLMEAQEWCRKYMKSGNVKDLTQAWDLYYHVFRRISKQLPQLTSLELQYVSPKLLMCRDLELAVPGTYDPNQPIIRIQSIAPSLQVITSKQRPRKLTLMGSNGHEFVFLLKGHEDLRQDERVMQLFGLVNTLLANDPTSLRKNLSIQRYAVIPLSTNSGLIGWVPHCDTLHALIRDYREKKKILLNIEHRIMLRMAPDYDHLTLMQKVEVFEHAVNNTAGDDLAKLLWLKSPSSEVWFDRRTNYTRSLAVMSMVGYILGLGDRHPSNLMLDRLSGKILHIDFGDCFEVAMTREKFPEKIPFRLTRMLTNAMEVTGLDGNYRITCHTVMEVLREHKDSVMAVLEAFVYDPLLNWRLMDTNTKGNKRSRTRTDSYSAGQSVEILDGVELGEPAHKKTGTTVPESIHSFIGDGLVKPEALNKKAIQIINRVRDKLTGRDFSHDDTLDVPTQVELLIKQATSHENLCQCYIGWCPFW
Outline: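 mTOR (0.5 nM) was incubated at rt with ATP (8 μM final) and GFP-4EBP1 (400 nM final) in 50 mM HEPES pH 7.5, 10 mM MnCl2, 50 mM NaCl, 1 mM EGTA, 1 mM DTT. EDTA stop with Tb3+-anti-p4EBP1 [pThr46] antibody (0.5 nM); TR-FRET read 15 min later.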

Row | IC50 [2] | IC50 [3] | IC50 [4] | solubility (Solubility at pH 6.8) | IC50 (mTOR) | Compound | IC50 [1]
1 | 45 nM | 29 nM | 7 nM | 9 µg/mL (≈ 19.7 µM) | 16 nM | CCOc1cc(-c2ccc3ncc4c(c3c2)n(-c2cn(CC)nc2C)c(=O)n4C)ccc1OC [Example 28.1, 8-(3-Ethoxy-4-methoxy-phenyl)-1-(1-ethyl-3-methyl-1H-pyrazol-4-yl)-3-methyl-1,3-dihydro-imidazo[4,5-c]quinolin-2-one] | < 5 nM
2 | 28 nM | 29 nM | 23 nM | 16 µg/mL (≈ 36 µM) | 29 nM | COCc1cc(-c2ccc3ncc4c(c3c2)n(-c2cn(C)nc2C)c(=O)n4C)cnc1OC [Example 202, 1-(1,3-Dimethyl-1H-pyrazol-4-yl)-8-(6-methoxy-5-methoxymethyl-pyridin-3-yl)-3-methyl-1,3-dihydro-imidazo[4,5-c]quinolin-2-one] | 1 nM
3 | 157 nM | 24 nM | 12 nM | 3 µg/mL (≈ 6.56 µM) | 30 nM | COc1ncc(-c2ccc3ncc4c(c3c2)n(-c2cn(C)nc2C)c(=O)n4C)cc1NC(C)=O [Example 64, N-{5-[1-(1,3-Dimethyl-1H-pyrazol-4-yl)-3-methyl-2-oxo-2,3-dihydro-1H-imidazo[4,5-c]quinolin-8-yl]-2-methoxy-pyridin-3-yl}-acetamide] | 5 nM
4 | 100 nM | 21 nM | 28 nM | 5 µg/mL (≈ 11 µM) | 12 nM | CNC(=O)c1ccc(-c2ccc3ncc4c(c3c2)n(-c2cn(C(C)C)nc2C)c(=O)n4C)cn1 [Example 15.3, 5-[1-(1-Isopropyl-3-methyl-1H-pyrazol-4-yl)-3-methyl-2-oxo-2,3-dihydro-1H-imidazo[4,5-c]quinolin-8-yl]-pyridine-2-carboxylic acid methylamide] | 17 nM

The remaining lines, values behind:

Row | Compound | IC50 [2] | IC50 [3] | IC50 [4] | solubility (Solubility at pH 6.8) | IC50 (mTOR) | IC50 [1]
5 | Cc1nn(C)cc1-n1c(=O)n(C)c2cnc3ccc(-c4ccc(OCCO)nc4)cc3c21 [Example 107, 1-(1,3-Dimethyl-1H-pyrazol-4-yl)-8-[6-(2-hydroxy-ethoxy)-pyridin-3-yl]-3-methyl-1,3-dihydro-imidazo[4,5-c]quinolin-2-one] | 193 nM | 101 nM | 85 nM | 49 µg/mL (≈ 114 µM) | 60 nM | 46 nM
6 | COCc1ncc(-c2ccc3ncc4c(c3c2)n(-c2cn(C)nc2C)c(=O)n4C)cc1OC [Example 195.1, 1-(1,3-Dimethyl-1H-pyrazol-4-yl)-8-(5-methoxy-6-methoxymethyl-pyridin-3-yl)-3-methyl-1,3-dihydro-imidazo[4,5-c]quinolin-2-one] | 154 nM | 114 nM | 63 nM | 439 µg/mL (≈ 988 µM) | 48 nM | 5 nM
7 | CCN(C)C(=O)Cn1cc(-n2c(=O)n(C)c3cnc4ccc(-c5cncc(OC(C)C)c5)cc4c32)c(C)n1 [Example 58.5, N-Ethyl-2-{4-[8-(5-isopropoxy-pyridin-3-yl)-3-methyl-2-oxo-2,3-dihydro-imidazo[4,5-c]quinolin-1-yl]-3-methyl-pyrazol-1-yl}-N-methyl-acetamide] | 357 nM | 102 nM | 53 nM | 466 µg/mL (≈ 907 µM) | 23 nM | 3 nM
8 | CCn1cc(-n2c(=O)n(C)c3cnc4ccc(-c5cnc(N)c(COC)c5)cc4c32)c(C)n1 [Example 168.2, 8-(6-Amino-5-methoxymethyl-pyridin-3-yl)-1-(1-ethyl-3-methyl-1H-pyrazol-4-yl)-3-methyl-1,3-dihydro-imidazo[4,5-c]quinolin-2-one] | 19 nM | 18 nM | 12 nM | 24 µg/mL (≈ 54.1 µM) | 41 nM | < 0.5 nM
9 | Cc1nn(C)cc1-n1c(=O)n(C)c2cnc3ccc(-c4cncc(C5(O)CCCC5)c4)cc3c21 [Example 218, 1-(1,3-Dimethyl-1H-pyrazol-4-yl)-8-[5-(1-hydroxy-cyclopentyl)-pyridin-3-yl]-3-methyl-1,3-dihydro-imidazo[4,5-c]quinolin-2-one] | 53 nM | 27 nM | 22 nM | 14 µg/mL (≈ 30.8 µM) | 41 nM | < 0.5 nM
